We go through 4 compounds from publication PMC4031293 (Molecular pharmaceutics, 2014).

“Also recorded” adds a separate entry of the source. Structures can show the parent of a compound that is named as a salt. Where two headings read alike, the source gives them in different places.

Series [1] can be described thus: pseudo steady-state blood CsA and plasma NFV concentrations in rats. It counts as in vivo, rat.
Series [2] concerns the target T1, P-gp at the rat BBB (Rattus norvegicus, UniProt Q6PSM0). The following applies: from brain:plasma ratios 0.044 and 0.93.
For series [3] the following is noted: cited from earlier work.
Series [4] deals with BCRP. The following applies: cited from earlier work.
In series [5] the target is P-gp (Rattus norvegicus, UniProt Q6PSM0). Description: in vivo. Particulars: Sprague Dawley; for Kp at 2 h: absence of CsA, 120 min; for Kp at 120 min: with maximum P-gp inhibition by CsA.
The test system of series [6] is P-gp. Particulars: cited from earlier work; for increase in brain distribution in mdr1a/b(−/−) vs. wild-type mice: 2, 3.
Series [7] relates to P-gp at the human BBB. The following applies: for predicted increase in NFV human brain:plasma concentration ratio: prediction based on the rat study alone.
Series [8] has as its system intracerebral human glioblastoma. The following applies: co-administration with paclitaxel compared to paclitaxel alone; cited from earlier work.
Series [9] has as its system P-gp at the human BBB. Particulars: tariquidar 6 mg/kg; cited from earlier work.
Series [10] has as its system P-gp. Particulars: P-gp chemically inhibited, mouse or rat; 4; 5; cited from earlier work.
The target of series [11] is T1, P-gp at the rat BBB. Particulars: 5.6 µM CsA blood concentration; 18; cited from earlier work.

P-gp (Rattus norvegicus, UniProt Q6PSM0), sequence (Q6PSM0 1-1272): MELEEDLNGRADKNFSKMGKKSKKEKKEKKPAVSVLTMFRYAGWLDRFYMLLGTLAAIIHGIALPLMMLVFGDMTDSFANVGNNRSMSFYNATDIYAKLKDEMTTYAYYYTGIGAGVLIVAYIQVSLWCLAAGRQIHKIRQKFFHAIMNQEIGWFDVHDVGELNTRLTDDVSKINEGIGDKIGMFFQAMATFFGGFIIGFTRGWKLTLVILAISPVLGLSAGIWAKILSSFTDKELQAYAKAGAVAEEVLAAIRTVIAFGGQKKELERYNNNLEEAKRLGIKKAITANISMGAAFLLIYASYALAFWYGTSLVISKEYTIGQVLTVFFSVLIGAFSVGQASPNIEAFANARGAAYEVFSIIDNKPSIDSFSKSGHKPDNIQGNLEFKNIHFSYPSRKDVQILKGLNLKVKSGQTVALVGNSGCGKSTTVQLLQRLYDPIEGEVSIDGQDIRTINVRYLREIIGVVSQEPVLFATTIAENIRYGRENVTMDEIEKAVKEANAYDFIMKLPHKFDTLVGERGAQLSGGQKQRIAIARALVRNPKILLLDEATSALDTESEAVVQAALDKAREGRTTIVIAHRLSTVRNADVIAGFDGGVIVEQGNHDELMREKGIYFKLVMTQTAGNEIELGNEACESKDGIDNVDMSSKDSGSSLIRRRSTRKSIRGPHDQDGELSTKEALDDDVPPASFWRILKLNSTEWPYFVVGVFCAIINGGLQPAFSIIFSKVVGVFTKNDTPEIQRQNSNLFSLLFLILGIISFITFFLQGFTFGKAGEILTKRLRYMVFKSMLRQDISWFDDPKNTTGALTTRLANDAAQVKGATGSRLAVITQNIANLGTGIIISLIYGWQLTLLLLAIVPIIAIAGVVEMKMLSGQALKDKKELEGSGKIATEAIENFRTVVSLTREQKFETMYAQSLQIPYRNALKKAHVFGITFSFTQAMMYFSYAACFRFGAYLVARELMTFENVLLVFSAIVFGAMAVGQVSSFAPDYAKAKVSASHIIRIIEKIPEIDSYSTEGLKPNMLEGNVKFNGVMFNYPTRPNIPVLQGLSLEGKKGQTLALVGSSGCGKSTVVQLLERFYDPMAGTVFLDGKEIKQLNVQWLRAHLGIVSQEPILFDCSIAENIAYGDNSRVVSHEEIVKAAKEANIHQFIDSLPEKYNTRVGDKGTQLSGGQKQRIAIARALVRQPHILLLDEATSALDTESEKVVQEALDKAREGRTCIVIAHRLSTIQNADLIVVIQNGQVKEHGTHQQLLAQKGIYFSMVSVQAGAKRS
T1 sequence (Q6PSM0 1-1272): as above

What is called Kp is tissue or fluid exposure divided by exposure in the circulation. Consider `Cc1c(O)cccc1C(=O)N[C@@H](CSc1ccccc1)[C@H](O)CN1C[C@H]2CCCC[C@H]2C[C@H]1C(=O)NC(C)(C)C` [NFV, Nelfinavir mesylate], for which the “effect of CsA on pseudo steady-state plasma NFV concentration” value in series [1] (at 120 min, Student's t-test) was “did not significantly affect; also recorded: not significantly affected”. Besides, the “time to pseudo steady-state NFV plasma concentration” value in series [1] (i.v. bolus plus constant rate i.v. infusion) is ≤ 30 min. Moreover, the “ft(P-gp), not corrected for vascular content” value in series [2] came to 0.95. In [3], the “blood: plasma ratio” value is given as 0.877. The “substrate of BCRP” value in series [4] is listed as “not a substrate”. Further, the Kp at 2 h was determined as 0.014 ± 0.01 in [5] (NFV brain:plasma concentration ratio corrected for vascular contamination) and 0.044 ± 0.01 in series [5] (NFV brain:plasma concentration ratio, not corrected for vascular contamination). The concentration ratio (Kp) at 120 min in [5] (NFV brain:plasma ratio after vascular-content correction) amounted to 0.9 ± 0.16; in [5] (NFV brain:plasma ratio, uncorrected for vascular content), 0.93 ± 0.16. The “increase in brain distribution in mdr1a/b(−/−) vs. wild-type mice” value in series [6] was 3400%. Further, in series [6] (5), the “increase in brain:blood concentration ratio in mdr1a/b(−/−) vs. wild-type mice” value is on record as 3400%. The “predicted increase in NFV human brain:plasma concentration ratio” value in [7] (CsA blood 1.5 µM) is listed as 236%; in series [7] (CsA blood 2.8 µM), 589%. Besides, the “predicted increase in the NFV brain:plasma concentration ratio / distribution into the human brain” value in [7] (CsA blood 1.5 µM, rat data and in vitro LLCPK1-MDR1 data) is on record as 241%. Besides, the “predicted increase in the NFV brain:plasma concentration ratio at the human BBB” value in series [7] (CsA blood 2.8 µM, in vitro data scaled using rat in vivo data) is given as 555%.
For the compound `C/C=C/C[C@@H](C)C(=O)[C@H]1C(=O)N[C@@H](C(C)C)C(=O)N(C)CC(=O)N(C)[C@@H](CC(C)C)C(=O)N[C@@H](C(C)C)C(=O)N(C)[C@@H](CC(C)C)C(=O)N[C@@H](C)C(=O)N[C@H](C)C(=O)N(C)[C@@H](CC(C)C)C(=O)N(C)[C@@H](CC(C)C)C(=O)N(C)[C@@H](C(C)C)C(=O)N1C` [PSC833], the brain tumor volume entry in series [8] is listed as “significant reduction in the brain tumor volume”.
Consider `CNC(=O)C(CCN1CCC(O)(c2ccc(Cl)cc2)CC1)(c1ccccc1)c1ccccc1` [dLop, N-desmethyl-loperamide], for which, in series [9], the “increase in distribution into the human brain” value is reported as ≤ 300%.
For the compound `CN(C)C(=O)C(CCN1CCC(O)(c2ccc(Cl)cc2)CC1)(c1ccccc1)c1ccccc1` [loperamide], the “increase in brain distribution in the presence vs. absence of the P-gp inhibitor” value in series [10] is 1500%. Moreover, in series [6], the “increase in brain distribution in mdr1a/b(−/−) vs. wild-type mice” value is recorded as 1200%. The “increase in total loperamide-radioactivity uptake into the brain of rats” value in series [11] is 588%.
